Measured values published in patent US8859574B2 (IRM LLC, priority 2008, dated 2014).

Each compound was assayed against T1, IGF-1R Ba/F3 (Homo sapiens, UniProt P08069) (assay: Ba/F3 Cell Viability Inhibition Assay (IGF-1R Ba/F3)). Conditions: Tel-TK transformed Ba/F3 cells, 48 hours, Britelite luminescence.
T1 construct: fused on or other part: TEL- (or BCR-) IGF-1R in Ba/F3: the kinase part holds the site
T1 sequence (P08069 999-1274 limits assumed): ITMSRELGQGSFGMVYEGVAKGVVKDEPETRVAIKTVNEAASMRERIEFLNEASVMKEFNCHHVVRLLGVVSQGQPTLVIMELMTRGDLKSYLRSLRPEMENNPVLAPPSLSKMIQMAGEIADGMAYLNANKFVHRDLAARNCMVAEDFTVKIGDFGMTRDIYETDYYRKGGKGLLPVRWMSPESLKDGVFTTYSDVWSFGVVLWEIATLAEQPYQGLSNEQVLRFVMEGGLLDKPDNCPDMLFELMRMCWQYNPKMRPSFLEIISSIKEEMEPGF
Type: cell-based, murine
Procedure, shortened: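 A 48 h compound treatment at 37 °C (3750 cells/well) was followed by Britelite luminescence to measure viability. Cells were Ba/F3 pro-B cells, IL-3-independent via TEL-fused IGF-1R kinase transduction. A logistic fit gave IC50 as 50% viability relative to DMSO control.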
`Cc1cc(Nc2nc(Nc3cc(Cl)c(C4CCN(C(=O)CN(C)C)CC4)cc3C)ncc2Cl)n[nH]1` [Compound 74, 1-(4-(2-chloro-4-(5-chloro-4-(5-methyl-1H-pyrazol-3-ylamino)pyrimidin-2-ylamino)-5-methylphenyl)piperidin-1-yl)-2-(dimethylamino)ethanone] showed an IC50 of 7 nM.
`Cc1cc(Nc2nc(Nc3cc(C)c(C4CCN(C(=O)CN(C)C)CC4)cc3C)ncc2Cl)n[nH]1` [Compound 75, 1-(4-(4-(5-chloro-4-(5-methyl-1H-pyrazol-3-ylamino)pyrimidin-2-ylamino)-2,5-dimethylphenyl)piperidin-1-yl)-2-(dimethylamino)ethanone] gave an IC50 of 11 nM.
Compound `COc1cc(Nc2ncc(Cl)c(Nc3cc(C)[nH]n3)n2)c(C)cc1C1CCN(C(=O)CN(C)C)CC1` [Compound 76, 1-(4-(4-(5-chloro-4-(5-methyl-1H-pyrazol-3-ylamino)pyrimidin-2-ylamino)-2-methoxy-5-methylphenyl)piperidin-1-yl)-2-(dimethylamino)ethanone] has an IC50 of 9 nM.
For `Cc1cc(Nc2nc(Nc3cc(Cl)c(C4CCN(C(=O)CN(C)C)CC4)cc3Cl)ncc2Cl)n[nH]1` [Compound 77, 1-(4-(2,5-dichloro-4-(5-chloro-4-(5-methyl-1H-pyrazol-3-ylamino)pyrimidin-2-ylamino)phenyl)piperidin-1-yl)-2-(dimethylamino)ethanone], the IC50 was 7 nM.
`Cc1cc(Nc2nc(Nc3cc(C)c(C4CCN(C(=O)CCN(C)C)CC4)cc3F)ncc2Cl)n[nH]1` [Compound 78, 1-(4-(4-(5-chloro-4-(5-methyl-1H-pyrazol-3-ylamino)pyrimidin-2-ylamino)-5-fluoro-2-methylphenyl)piperidin-1-yl)-3-(dimethylamino)propan-1-one] gave an IC50 of 138 nM.
`Cc1cc(Nc2nc(Nc3cc(C)c(C4CCN(C(=O)CN)CC4)cc3F)ncc2Cl)n[nH]1` [Compound 79, 2-amino-1-(4-(4-(5-chloro-4-(5-methyl-1H-pyrazol-3-ylamino)pyrimidin-2-ylamino)-5-fluoro-2-methylphenyl)piperidin-1-yl)ethanone] was tested, and the IC50 was 75 nM.
`CNCC(=O)N1CCC(c2cc(F)c(Nc3ncc(Cl)c(Nc4cc(C)[nH]n4)n3)cc2C)CC1` [Compound 80, 1-(4-(4-(5-chloro-4-(5-methyl-1H-pyrazol-3-ylamino)pyrimidin-2-ylamino)-5-fluoro-2-methylphenyl)piperidin-1-yl)-2-(methylamino)ethanone] was tested, and the IC50 was 103 nM.
`CCN(CC)CC(=O)N1CCC(c2cc(F)c(Nc3ncc(Cl)c(Nc4cc(C)[nH]n4)n3)cc2C)CC1` [Compound 81, 1-(4-(4-(5-chloro-4-(5-methyl-1H-pyrazol-3-ylamino)pyrimidin-2-ylamino)-5-fluoro-2-methylphenyl)piperidin-1-yl)-2-(diethylamino)ethanone] gave an IC50 of 30 nM.
Compound `Cc1cc(Nc2nc(Nc3cc(C)c(C4CCCCN4C(=O)CN(C)C)cc3C)ncc2Cl)n[nH]1` (stereo not drawn) [Compound 83, 1-(2-(4-(5-chloro-4-(5-methyl-1H-pyrazol-3-ylamino)pyrimidin-2-ylamino)-2,5-dimethylphenyl)piperidin-1-yl)-2-(dimethylamino)ethanone] has an IC50 of 13 nM.
With `CNC(C)C(=O)N1CCC(c2cc(F)c(Nc3ncc(Cl)c(Nc4cc(C)[nH]n4)n3)cc2C)CC1` (stereo not drawn) [Compound 85, 1-(4-(4-(5-chloro-4-(5-methyl-1H-pyrazol-3-ylamino)pyrimidin-2-ylamino)-5-fluoro-2-methylphenyl)piperidin-1-yl)-2-(methylamino)propan-1-one] the IC50 was 42 nM.
`Cc1cc(Nc2nc(Nc3cc(C)c(C4CCN(C(=O)C(C)N)CC4)cc3F)ncc2Cl)n[nH]1` (stereo not drawn) [Compound 86, 2-amino-1-(4-(4-(5-chloro-4-(5-methyl-1H-pyrazol-3-ylamino)pyrimidin-2-ylamino)-5-fluoro-2-methylphenyl)piperidin-1-yl)propan-1-one] gave an IC50 of 141 nM.
In the case of `CNC(C)(C)C(=O)N1CCC(c2cc(F)c(Nc3ncc(Cl)c(Nc4cc(C)[nH]n4)n3)cc2C)CC1` [Compound 87, 1-(4-(4-(5-chloro-4-(5-methyl-1H-pyrazol-3-ylamino)pyrimidin-2-ylamino)-5-fluoro-2-methylphenyl)piperidin-1-yl)-2-methyl-2-(methylamino)propan-1-one], the IC50 is reported as 17 nM.
For `CNC(C)(C)C(=O)N1CCC(c2cc(C)c(Nc3ncc(Cl)c(Nc4cc(C)[nH]n4)n3)cc2Cl)CC1` [Compound 88, 1-(4-(2-chloro-4-(5-chloro-4-(5-methyl-1H-pyrazol-3-ylamino)pyrimidin-2-ylamino)-5-methylphenyl)piperidin-1-yl)-2-methyl-2-(methylamino)propan-1-one], the IC50 was 7 nM.
In the case of `Cc1cc(Nc2nc(Nc3cc(C)c(C4CCN(C(=O)C(C)(C)N)CC4)cc3C)ncc2Cl)n[nH]1` [Compound 89, 2-amino-1-(4-(4-(5-chloro-4-(5-methyl-1H-pyrazol-3-ylamino)pyrimidin-2-ylamino)-2,5-dimethylphenyl)piperidin-1-yl)-2-methylpropan-1-one], the IC50 is reported as 23 nM.
In the case of `CNC1(C(=O)N2CCC(c3cc(C)c(Nc4ncc(Cl)c(Nc5cc(C)[nH]n5)n4)cc3C)CC2)CC1` [Compound 90, (4-(4-(5-chloro-4-(5-methyl-1H-pyrazol-3-ylamino)pyrimidin-2-ylamino)-2,5-dimethylphenyl)piperidin-1-yl)(1-(methylamino)cyclopropyl)methanone], the IC50 is reported as 5 nM.
In the case of `Cc1cc(Nc2nc(Nc3cc(C)c(C4CCN(C(=O)C5(N)CCC5)CC4)cc3C)ncc2Cl)n[nH]1` [Compound 91, (1-aminocyclobutyl)(4-(4-(5-chloro-4-(5-methyl-1H-pyrazol-3-ylamino)pyrimidin-2-ylamino)-2,5-dimethylphenyl)piperidin-1-yl)methanone], the IC50 is reported as 52 nM.
For `Cc1cc(Nc2nc(Nc3cc(C)c(C4CCN(C(=O)C5(N(C)C)CCC5)CC4)cc3C)ncc2Cl)n[nH]1` [Compound 92, (4-(4-(5-chloro-4-(5-methyl-1H-pyrazol-3-ylamino)pyrimidin-2-ylamino)-2,5-dimethylphenyl)piperidin-1-yl)(1-(dimethylamino)cyclobutyl)methanone], the IC50 was 15 nM.
Compound `Cc1cc(Nc2nc(Nc3cc(C)c(C4CCN(C(=O)C5(N)CC5)CC4)cc3F)ncc2Cl)n[nH]1` [Compound 93, (1-aminocyclopropyl)(4-(4-(5-chloro-4-(5-methyl-1H-pyrazol-3-ylamino)pyrimidin-2-ylamino)-5-fluoro-2-methylphenyl)piperidin-1-yl)methanone] has an IC50 of 33 nM.
Compound `Cc1cc(Nc2nc(Nc3cc(C)c(C4CCN(C(=O)C5(N(C)C)CC5)CC4)cc3F)ncc2Cl)n[nH]1` [Compound 94, (4-(4-(5-chloro-4-(5-methyl-1H-pyrazol-3-ylamino)pyrimidin-2-ylamino)-5-fluoro-2-methylphenyl)piperidin-1-yl)(1-(dimethylamino)cyclopropyl)methanone] has an IC50 of 13 nM.
Compound `Cc1cc(Nc2nc(Nc3cc(Cl)c(C4CCN(C(=O)CN5CCOCC5)CC4)cc3C)ncc2Cl)n[nH]1` [Compound 95, 1-(4-(2-chloro-4-(5-chloro-4-(5-methyl-1H-pyrazol-3-ylamino)pyrimidin-2-ylamino)-5-methylphenyl)piperidin-1-yl)-2-morpholinoethanone] has an IC50 of 6 nM.
`Cc1cc(Nc2nc(Nc3cc(Cl)c(C4CCN(C(=O)CN5CCC5)CC4)cc3C)ncc2Cl)n[nH]1` [Compound 96, 2-(azetidin-1-yl)-1-(4-(2-chloro-4-(5-chloro-4-(5-methyl-1H-pyrazol-3-ylamino)pyrimidin-2-ylamino)-5-methylphenyl)piperidin-1-yl)ethanone] gave an IC50 of 24 nM.
